Laboratory results taken from PMC12657321, “Pre-clinical evaluation of a potent and effective Pin1-degrading agent in pancreatic cancer” (Molecular Therapy Oncology, 2025).
Non-standard residues stand in square brackets, D forms with d. Residues, ends and D or L forms follow the SMILES beside them. *: point of attachment. Trp(6-Cl) = N[C@@H](Cc1c[nH]c2cc(Cl)ccc12)C(=O)O; Pip = O=C(O)[C@@H]1CCCCN1; ClAc = O=C(CCl)*

How the values were obtained:
[1] = Stability in aqueous buffer (1x PBS); assay type: physicochemical; conditions: 1x phosphate buffered saline, 1 μg/mL, 37°C, up to 6 h, acetonitrile quench, LC-MS/MS
Description: (§1) A solution of a Pin1 inhibitor was spiked into blank plasma at 1 μg/mL in various solutions, including an aqueous buffer (1× phosphate-buffered saline; Fisher Scientific, Fair Lawn, NJ), human plasma (Innovative Research Inc., Novi, MI), wild-type mouse plasma (Innovative Research Inc., Novi, MI), plasma form esterase-deficient mice (City of Hope, Duarte, CA), and plasma from Black 6-Cg mice (City of Hope, Duarte, CA).
(§2) The spiked plasma samples were incubated at 37°C for up to 6 h. At each designated time point, a 20 μL aliquot of the incubation sample was removed and quenched in 100 μL of acetonitrile. At the end of the incubation, the quenched samples were vortexed and centrifuged for 10 min at 4°C and 20,000 × g. The resulting supernatant was reconstituted and analyzed by LC-MS/MS.
(§3) Table S2. Stability half-life of agents reported in Table 1 after incubation at 37 °C in various media. Acq represents aqueous buffer composed of 1x phosphate buffered saline (Fisher Scientific, Fair Lawn, NJ); human represents human plasma (Innovative Research Inc., Novi, MI); mouse wt represents wild type mouse plasma (Innovative Research Inc., Novi, MI); mouse ES1e represents plasma form esterase deficient mice (City of Hope, Duarte, CA); mouse B6-Cg represents plasma from black 6-Cg mice (City of Hope, Duarte, CA). See Figure 1 for the chemical structures of these compounds.
(§4) Compound Acq Human Mouse Mouse ES1e Mouse

Human plasma stability = assay type: in vitro ADME; conditions: 37°C, up to 6 h, acetonitrile quench, LC-MS/MS
Description: as §1, §2, §3, §4

[2] = Wild-type mouse plasma stability; assay type: in vitro ADME; conditions: 37°C, up to 6 h, acetonitrile quench, LC-MS/MS, values given in min, read-out: Stability half-life, Mouse WT (converted)
Description: as §1, §2, §3, §4

[3] = Stability in plasma from esterase-deficient (ES1e) mice; assay type: in vitro ADME; conditions: mouse, 37°C, up to 6 h, acetonitrile quench, LC-MS/MS
Description: as §1, §2, §3, §4

[4] = Stability in plasma from Black 6-Cg mice; assay type: in vitro ADME; conditions: Black 6-Cg (B6-Cg), mouse, 37°C, up to 6 h, acetonitrile quench, LC-MS/MS
Description: as §1, §2, §3, §4

SMILES	Stability half-life, Acq (aqueous buffer) [1] [h]	half-life at 1 μg/mL (Human plasma stability) [h]	half-life at 1 μg/mL [2] [h]	half-life at 1 μg/mL [3] [h]	half-life at 1 μg/mL [4] [h]
NC(=O)[C@H](Cc1c[nH]c2ccc(F)cc12)NC(=O)[C@@H]1CCCCN1C(=O)[C@@H]1Cc2c([nH]c3ccccc23)CN1C(=O)CCl [164A10]	> 5	~2.5	< 0.167	~2.5	~2.5
NC(=O)[C@H](Cc1c[nH]c2ccccc12)NC(=O)[C@@H]1CCCCN1C(=O)[C@H](Cc1c[nH]c2cc(Cl)ccc12)NC(=O)CCl [158H9] (ClAc-[Trp(6-Cl)]-[Pip]-Trp-NH2)	> 5	~3	~0.5	> 5	> 5
